Measurements from ChEMBL document CHEMBL1201862, “PubChem BioAssay data set” (2004).
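Results reflect a 48-hour exposure of cells in 96-well plates to compound at five concentrations. GI50: concentration for 50% inhibition of growth.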 Activity calls are given as the source filed them. Rule as the data show it: active = GI50 up to about 1.1 µM and inactive = higher.

Assays:
Assay in all cases: NCI-60 cell line screen, 48 h
HCC 2998 = tested on: HCC 2998
UACC-62 = tested on: UACC-62
UO-31 = tested on: UO-31
MDA-MB-435 = tested on: MDA-MB-435
KM12 = tested on: KM12
NCI/ADR-RES = tested on: NCI/ADR-RES
HCT-116 = tested on: HCT-116
K562 = tested on: K562
RXF 393 = tested on: RXF 393
MOLT-4 = tested on: MOLT-4
NCI-H522 = tested on: NCI-H522
SK-MEL-5 = tested on: SK-MEL-5
RPMI-8226 = tested on: RPMI-8226
OVCAR-4 = tested on: OVCAR-4
TK-10 = tested on: TK-10
SW-620 = tested on: SW-620
BT-549 = tested on: BT-549
NCI-H460 = tested on: NCI-H460
HT-29 = tested on: HT-29

## O=C(O)c1ccccc1Sc1ccccc1[N+](=O)[O-]
HCC 2998
  GI50: > 100 µM (inactive)
UACC-62
  GI50: > 100 µM (inactive)
UO-31
  GI50: > 100 µM (inactive)
MDA-MB-435
  GI50: > 100 µM (inactive)
KM12
  GI50: > 100 µM (inactive)
NCI/ADR-RES
  GI50: > 100 µM (inactive)
HCT-116
  GI50: > 100 µM (inactive)
K562
  GI50: > 100 µM (inactive)
RXF 393
  GI50: > 100 µM (inactive)
MOLT-4
  GI50: > 100 µM (inactive)
NCI-H522
  GI50: > 100 µM (inactive)
SK-MEL-5
  GI50: > 100 µM (inactive)
RPMI-8226
  GI50: > 100 µM (inactive)
OVCAR-4
  GI50: > 100 µM (inactive)
TK-10
  GI50: > 100 µM (inactive)
SW-620
  GI50: > 100 µM (inactive)
BT-549
  GI50: > 100 µM (inactive)
NCI-H460
  GI50: > 100 µM (inactive)
HT-29
  GI50: > 100 µM (inactive)

## CC(=O)O[C@H]1C(=O)[C@@]2(C)[C@H]([C@H](OC(=O)C3CCCCC3)[C@]3(O)C[C@H](OC(=O)[C@H](O)[C@@H](NC(=O)C4CCCCC4)C4CCCCC4)C(C)=C1C3(C)C)[C@]1(OC(C)=O)CO[C@@H]1C[C@@H]2O
HCC 2998
  GI50: 0.0442 µM (active)
UACC-62
  GI50: 0.0163 µM (active)
UO-31
  GI50: 0.344 µM (active)
MDA-MB-435
  GI50: 0.00256 µM (active)
KM12
  GI50: 0.0101 µM (active)
NCI/ADR-RES
  GI50: 1.07 µM (active)
HCT-116
  GI50: 0.00439 µM (active)
K562
  GI50: 0.0128 µM (active)
RXF 393
  GI50: 0.0407 µM (active)
MOLT-4
  GI50: 0.0151 µM (active)
NCI-H522
  GI50: 0.00658 µM (active)
SK-MEL-5
  GI50: 0.0147 µM (active)
RPMI-8226
  GI50: 0.0025 µM (active)
OVCAR-4
  GI50: 0.538 µM (active)
TK-10
  GI50: 0.0451 µM (active)
SW-620
  GI50: 0.01 µM (active)
BT-549
  GI50: 0.0556 µM (active)
NCI-H460
  GI50: 0.00723 µM (active)

## O=C(/C=C/c1ccccc1)CCN1CCN(CCC(=O)/C=C/c2ccccc2)CC1
HCC 2998
  GI50: 16.7 µM (inactive)
UACC-62
  GI50: 16.3 µM (inactive)
UO-31
  GI50: 16.9 µM (inactive)
MDA-MB-435
  GI50: 3.72 µM (inactive)
KM12
  GI50: 4.82 µM (inactive)
NCI/ADR-RES
  GI50: 24.7 µM (inactive)
HCT-116
  GI50: 2.16 µM (inactive)
K562
  GI50: 3.97 µM (inactive)
RXF 393
  GI50: 13.7 µM (inactive)
MOLT-4
  GI50: 4.47 µM (inactive)
NCI-H522
  GI50: 13.2 µM (inactive)
SK-MEL-5
  GI50: 14.7 µM (inactive)
RPMI-8226
  GI50: > 100 µM (inactive)
OVCAR-4
  GI50: 16.5 µM (inactive)
TK-10
  GI50: 16.4 µM (inactive)
SW-620
  GI50: 4.67 µM (inactive)
BT-549
  GI50: 15.1 µM (inactive)
NCI-H460
  GI50: 15.2 µM (inactive)
HT-29
  GI50: 14.3 µM (inactive)

## OC1(C(Sc2cc(C(F)(F)F)cc(C(F)(F)F)c2)Sc2cc(C(F)(F)F)cc(C(F)(F)F)c2)C=CCCC1 (stereo not given)
HCC 2998
  GI50: 1.4 µM (inactive)
UACC-62
  GI50: 1.99 µM (inactive)
UO-31
  GI50: 1.38 µM (inactive)
MDA-MB-435
  GI50: 1.86 µM (inactive)
KM12
  GI50: 1.73 µM (inactive)
NCI/ADR-RES
  GI50: 2.93 µM (inactive)
HCT-116
  GI50: 2.12 µM (inactive)
K562
  GI50: 1.53 µM (inactive)
RXF 393
  GI50: 1.75 µM (inactive)
MOLT-4
  GI50: 1.65 µM (inactive)
NCI-H522
  GI50: 1.74 µM (inactive)
SK-MEL-5
  GI50: 9.53 µM (inactive)
RPMI-8226
  GI50: 1.47 µM (inactive)
OVCAR-4
  GI50: 1.74 µM (inactive)
TK-10
  GI50: 1.51 µM (inactive)
SW-620
  GI50: 1.91 µM (inactive)
BT-549
  GI50: 3.35 µM (inactive)
NCI-H460
  GI50: 1.33 µM (inactive)
HT-29
  GI50: 1.08 µM (active)

## O=c1[nH]nc(-c2cccc(Br)c2)[nH]1
HCC 2998
  GI50: > 100 µM (inactive)
UACC-62
  GI50: > 100 µM (inactive)
UO-31
  GI50: 94.2 µM (inactive)
MDA-MB-435
  GI50: > 100 µM (inactive)
KM12
  GI50: > 100 µM (inactive)
NCI/ADR-RES
  GI50: > 100 µM (inactive)
HCT-116
  GI50: > 100 µM (inactive)
K562
  GI50: > 100 µM (inactive)
RXF 393
  GI50: > 100 µM (inactive)
MOLT-4
  GI50: > 100 µM (inactive)
NCI-H522
  GI50: > 100 µM (inactive)
SK-MEL-5
  GI50: > 100 µM (inactive)
RPMI-8226
  GI50: > 100 µM (inactive)
OVCAR-4
  GI50: > 100 µM (inactive)
TK-10
  GI50: > 100 µM (inactive)
SW-620
  GI50: > 100 µM (inactive)
BT-549
  GI50: 4.74 µM (inactive)
NCI-H460
  GI50: > 100 µM (inactive)
HT-29
  GI50: > 100 µM (inactive)

## Nc1nc(N)c2cc(-c3ccccc3)cnc2n1
HCC 2998
  GI50: 33 µM (inactive)
UO-31
  GI50: 13 µM (inactive)
MDA-MB-435
  GI50: > 10 µM (inactive)
KM12
  GI50: 16.5 µM (inactive)
NCI/ADR-RES
  GI50: 24.4 µM (inactive)
HCT-116
  GI50: 4.66 µM (inactive)
K562
  GI50: 3.36 µM (inactive)
RXF 393
  GI50: 8.65 µM (inactive)
MOLT-4
  GI50: 9.89 µM (inactive)
NCI-H522
  GI50: 21.6 µM (inactive)
SK-MEL-5
  GI50: 10 µM (inactive)
RPMI-8226
  GI50: 16.6 µM (inactive)
OVCAR-4
  GI50: 13.9 µM (inactive)
TK-10
  GI50: 16.3 µM (inactive)
SW-620
  GI50: 9.84 µM (inactive)
BT-549
  GI50: 16.6 µM (inactive)
NCI-H460
  GI50: 10.8 µM (inactive)
HT-29
  GI50: 8.55 µM (inactive)

## CC(=O)Nc1ccc(C(=O)N[C@@H]2C(=O)N3[C@@H]2SC(C)(C)[C@@H]3C(=O)O)cn1
HCC 2998
  GI50: > 100 µM (inactive)
UACC-62
  GI50: > 100 µM (inactive)
UO-31
  GI50: > 100 µM (inactive)
MDA-MB-435
  GI50: > 100 µM (inactive)
KM12
  GI50: > 100 µM (inactive)
NCI/ADR-RES
  GI50: > 100 µM (inactive)
HCT-116
  GI50: > 100 µM (inactive)
K562
  GI50: > 100 µM (inactive)
RXF 393
  GI50: > 100 µM (inactive)
MOLT-4
  GI50: > 100 µM (inactive)
SK-MEL-5
  GI50: > 100 µM (inactive)
RPMI-8226
  GI50: > 100 µM (inactive)
OVCAR-4
  GI50: > 100 µM (inactive)
TK-10
  GI50: > 100 µM (inactive)
SW-620
  GI50: > 100 µM (inactive)
BT-549
  GI50: > 100 µM (inactive)
NCI-H460
  GI50: > 100 µM (inactive)
HT-29
  GI50: > 100 µM (inactive)
